Values quoted from earlier work, collected in patent US9849196B2, “Methods and compositions for altering photophysical properties of fluorophores via proximal quenching” (Cornell University, priority 2009, dated 2017).

Details: background statement

Solubility in aqueous solutions, highly insoluble:
C1=CC=CC=CC=C1 [COT, cyclooctatetraene]
O=[N+]([O-])c1ccc(CO)cc1 [NBA, p-nitrobenzyl alcohol]
Cc1c(C)c2c(c(C)c1O)CCC(C)(C(=O)O)O2 (stereo not drawn) [Trolox]
